The values below come from PMC10347550, “Cyclic Ruthenium-Peptide Conjugates as Integrin-Targeting Phototherapeutic Prodrugs for the Treatment of Brain Tumors” (Journal of the American Chemical Society, 2023).

Where two headings read alike, the source gives them in different places.

In data set [1] the test system is A549 cells. In words: 2D cytotoxicity assay, 24 h DLI & no wash, SRB endpoint. It is filed as cell-based, human. Particulars: for EC50: A549 2D monolayer, not washed, n = 3. As to the method: (§1) For each complex, two identical plates were prepared, one of which was irradiated with light, while the other was used as a dark control. […] Finally, at t = 96 h, 100 μL of cold trichloroacetic acid (10% w/v) was added to each well to fix the cells, and all plates were then transferred to a 4 °C refrigerator for 48 h before performing an SRB cell quantification endpoint assay.[72] Trichloroacetic acid was first removed and each plate was gently washed with demi water 3–5 times. Then, each well was dried in the air, and 100 μL of 0.6% SRB solution (0.6% w/v in 1% v/v acetic acid/H2O solution) was added into each well where it was allowed to stain for 30 min. Then, the plates were washed 3–5 times using an acetic acid solution (1% v/v). Once the plate was washed it was allowed to dry overnight. Then, 200 μL of 10 mM Tris base buffer was added to each well and the plate was allowed to sit on an orbital shaker for 0.5–16 h. After mixing, the absorbance of each well was determined by an M1000 Tecan Reader, reading at 510 nm. All experiments were conducted in independent biological triplicate. The obtained data were analyzed with Graphpad Prism 5 using the dose–response two-parameter Hill slope equation (eq 1) to obtain the half-maximal effective concentrations EC50 (defined as the concentration of drug that kills 50% of cells, compared to the untreated control). [drawing 1] 1

Data set [2] relates to PC-3 cells. Described as above. It is filed as cell-based, human. Particulars: for EC50: PC-3 2D monolayer, not washed, SRB at 96 h, n = 3. As to the method: as §1
Data set [3] deals with U87MG cells. The description is as above. Particulars: for EC50: U87MG 2D monolayer, not washed, SRB at 96 h, n = 3; for PI (EC50,dark/EC50,light): U87MG. It is filed as cell-based, human. As to the method: as §1
Data set [4] deals with U87MG spheroids. In words: 3D tumor spheroid viability assay, CellTiter-Glo 3D. The following applies: U87MG 3D spheroids; for EC50: CellTiter-Glo 3D at 96 h, n = 3. The format is cell-based, human. As to the method: The spheroids were incubated further under normoxia. […] After 30 min of shaking on an IKA Vibrax shaker at 500 rpm at room temperature, the luminescence in each well was measured with a Tecan microplate reader. […] All experiments were conducted in three biologically independent replicates.

A short description of data set [5]: Octanol-water partition coefficient (log P). It is filed as physicochemical. The following applies: shake-flask, octanol-saturated water / water-saturated octanol, shaken 24 h in the dark, room temperature; Ru in water phase by ICP-MS; ± SD from 4 concentration points. The protocol: Each complex was first dissolved in octanol-saturated water (0.5 mM, 500 μL) and centrifuged (2000 rpm, 5 min) to isolate the undissolved solid. 450 μL of the supernatant was taken out as the stock solution; after that, 5, 10, 50, 100, and 150 μL of solution were added to the 15 mL tube, and more octanol-saturated water was added to adjust the final volume to 1 mL. 1 mL of water-saturated octanol was added further, and the tubes were mildly shaken (Gesellschaft für Labortechnik mbH, type3016) for 24 h under dark conditions. After that, the solutions were centrifuged for 5 min at 2000 rpm at room temperature, and 0.5 mL of the water phase (below phase) was moved to a 15 mL centrifuge tube by an Eppendorf pipette. Then, 0.1 mL of 65% HNO3 was added into the tube using an organic pipette gun, and each solution was shaken for 1 h. 9.9 mL of MilliQ water was added into each tube, making a total volume of 10 mL. To detect the Ru content of the stock solution, 10 μL of each stock solution was mixed with 0.490 mL of 65% HNO3, and the mixture was shaken for 1 h. Then, […] of MilliQ water was added to the tube, making a total volume of 10 mL. ICP-MS measurement was performed using a NexION 2000 from PerkinElmer. The ruthenium content in each well was obtained in ppb. The partition coefficients (log P) were calculated using the following eq 3 [drawing 3] 3
where [complex]total is the concentration of the complex in the control sample (where no water-saturated octanol was added) and [complex]water is the concentration of the complex in the aqueous layer.

The subject of data set [6] is U87MG cells. In words: Apopxin/Nuclear Green DCS1 double-staining cell death mode study. The following applies: 20 μM, 24 h incubation, 1 h after green light (13.1 J/cm^2), flow cytometry. The format is cell-based, human. As to the method:
After 24 h of incubation, one plate labeled light was irradiated for 20 min using 520 nm green light (13.1 J/cm^2), and then both plates were allowed to incubate further for 1, 2, 6, or 24 h in a normoxia incubator. After incubation, the cells were trypsinized, collected, and washed with cold PBS twice. […] Cells after staining were detected by flow cytometry (CytoFLEX flow cytometer) immediately. Control groups with only assay buffer, only buffer and Apopxin Deep Red Indicator, only buffer and Nuclear Green DCS1, and all three were included to be used for gating during data analysis. Parameters APC (638 nm excitation, 660/10 nm emission) and FITC (488 nm excitation, 525/40 nm emission) were used considering their similar excitation/emission wavelength with two detectors Apopxin Deep Red Indicator, Ex/Em = 630/660 nm (apoptosis), and Nuclear Green DCS1, Ex/Em = 490/520 nm (necrosis).

Data set [7] can be described thus: Nanoaggregation in Opti-MEM by DLS and TEM. It is filed as physicochemical. Particulars: dark; for DLS size distribution: 24 h. The protocol: DLS was used to determine the distribution of particles in complex solutions (50 μM) in Opti-MEM (Gibco complete medium 11058-021, supplemented with 0.2% v/v penicillin/streptomycin (P/S), and 1% v/v glutamine) with or without 2.5% fetal calf serum (FCS) proteins via a ZEN1600 Zetasizer Nano instrument (Malvern Instruments Limited) operated with a 633 nm laser.
The TEM experiments were carried out with a TEM JEOL 1010:100 kV transmission electron microscope using a Formvar/carbon-coated copper grid (Polysciences Inc.). For the preparation of samples, a 1 mM stock aqua solution was diluted to 50 μM by Opti-MEM, after which, each drop (15 μL) of the complex solution was deposited on a parafilm (Bemis, HS234526C). The grids (Electron Microscopy Sciences, 71137) were placed on top of the drops for 5 min and then the excess liquid on the grid was removed with filter paper and air dried for 2 h for the TEM measurement. The TEM measurements were carried out under vacuum conditions.

Where [8] appears, read: 1% O2, dark, 24 h treatment, SRB at 96 h, read-out: EC50,dark.
The mark [9] stands for this setting: 1% O2, 520 nm, 7.22 mW/cm^2, 13.1 J/cm^2, 30 min, SRB at 96 h, read-out: EC50,light.
[10] abbreviates: 21% O2, dark, 24 h treatment, SRB at t = 96 h, read-out: EC50,dark.
Setting [11] is: 21% O2, 24 h treatment, 520 nm, 10.9 mW/cm^2, 13.1 J/cm^2, 20 min, SRB at 96 h, read-out: EC50,light.
The mark [12] stands for this setting: 1% O2, dark, 24 h treatment, read-out: EC50,dark.
Where [13] appears, read: 1% O2, 520 nm, 7.22 mW/cm^2, 13.1 J/cm^2, 30 min, read-out: EC50,light.
[14] abbreviates: 21% O2, dark, 24 h treatment, read-out: EC50,dark.
[15] abbreviates: 21% O2, 520 nm, 10.9 mW/cm^2, 13.1 J/cm^2, 20 min, read-out: EC50,light.
Where [16] appears, read: 21% O2, green light after 24 h treatment, read-out: EC50,light.

For the substance “[Ru(Ph2phen)2(κ^S,κ^N-(Ac-MRGDH-NH2))]Cl2 (sidechain bridge or staple) [Δ-[1]Cl2] [cyclic ruthenium-peptide conjugate, Ac-MRGDH-NH2 coordinated via Met S and His N]”, the EC50 – broadly, the concentration that produces a half-maximal response – in data set [1] (setting [8]) turned out to be 50.1 µM; in data set [1] (setting [9]) it was 17.3 µM; in data set [1] (setting [10]) it was 72.5 µM; in data set [1] (setting [11]), 4.3 µM; in data set [2] (setting [12]), 61.4 µM; in data set [2] (setting [13]), 50.7 µM. The EC50 in data set [2] (setting [14]) was found to be 52 µM; in data set [2] (setting [15]) it was 6 µM; in data set [3] (setting [12]) it was 42.7 µM; in data set [3] (setting [13]) it was 18.8 µM; in data set [3] (setting [14]), 39.5 µM; in data set [3] (setting [15]) it was 3.6 µM. Also, the EC50 in data set [4] (setting [14]) came to 46 µM; in data set [4] (setting [16]), 10.9 µM. Moreover, the “PI (EC50,dark/EC50,light)” value in data set [1] (A549, 1% O2) was determined as 2.9; in data set [1] (A549, 21% O2), 17; in data set [2] (PC-3, 1% O2), 1.2; in data set [2] (PC-3, 21% O2), 9; in data set [3] (1% O2), 2.3; in data set [3] (21% O2), 11. The “PI (EC50,dark/EC50,light)” value in data set [4] (21% O2) is listed as 4.2. In data set [5], the “log P (octanol-water partition coefficient)” value was 0.00 ± 0.02. For the same substance, the cell death mode result in data set [6] is on record as “died mainly via necrosis”. For the same substance, the DLS size distribution entry in data set [7] (50 μM in Opti-MEM with 2.5% FCS) was “around 100 nm”; in data set [7] (50 μM in Opti-MEM without FCS), “above 1 μm”.

For the substance “[Ru(Ph2phen)2(κ^S,κ^N-(Ac-MRGDH-NH2))]Cl2 (sidechain bridge or staple) [Λ-[1]Cl2] [cyclic ruthenium-peptide conjugate, Ac-MRGDH-NH2 coordinated via Met S and His N]”, the EC50 is 51 µM in data set [1] (setting [8]); 19 µM in data set [1] (setting [9]); 66.8 µM in data set [1] (setting [10]); 5 µM in data set [1] (setting [11]); 74.3 µM in data set [2] (setting [12]); 46.5 µM in data set [2] (setting [13]). Also, the EC50 is 66.6 µM in data set [2] (setting [14]); 5.3 µM in data set [2] (setting [15]); 41.4 µM in data set [3] (setting [12]); 19 µM in data set [3] (setting [13]); 41.6 µM in data set [3] (setting [14]); 3.8 µM in data set [3] (setting [15]). Besides, the values for the EC50 in data set [4] (setting [14]) and in data set [4] (setting [16]) were 37 µM and 7.6 µM, respectively. Further, the “PI (EC50,dark/EC50,light)” value turned out to be 2.7 in data set [1] (A549, 1% O2); 13 in data set [1] (A549, 21% O2); 1.5 in data set [2] (PC-3, 1% O2); 12 in data set [2] (PC-3, 21% O2); 2.2 in data set [3] (1% O2); 4.9 in data set [4] (21% O2). Moreover, the “log P (octanol-water partition coefficient)” value in data set [5] is given as −0.03 ± 0.02. Also, the cell death mode entry in data set [6] was “died mainly via necrosis”. For the same substance, the “nanoparticle formation (DLS)” value in data set [7] (50 μM in Opti-MEM with 2.5% FCS, 24 h (Figure S20)) is on record as “Nanoparticles of similar size were observed”.
